This is an account of results in patent US20260101895A1, “[…] AND COMPOSITION” (Innospec Limited, priority 2022, published 2026).

The conditions of series [1]: initial solubility; 2 g complex in 100 ml deionised water, room temperature, 20 minutes, filtered 0.45 μm. From the text:
By the term “copper bioavailability” we mean the amount of copper that is released upon contact with water, i.e. so as to provide free copper ions for consumption by fungi. Copper bioavailability values may be measured using any suitable method, including the method as set out in the Examples. The copper bioavailability may be determined by measuring the content of copper in a sample (for example using a colorimetric test that compares to copper nitrate solutions of known concentrations) and converting the copper content to an amount of bioavailable copper (in ppm) using the formula: […]
The copper content is converted to bioavailable copper using the formula:
A solution of each copper amino carboxylic acid complex was prepared by dissolving 2 g of the copper complex in 100 ml deionised water and stirring at room temperature for 20 minutes. A sample of this solution was then withdrawn and filtered through a 0.45 μm syringe.
The filtered copper liquid was diluted with 1% nitric acid to yield a solution containing an approximate maximum of 1 mg/L Cu2+. The total copper content was then determined using a Perkin Elmer NexION 350D and converted to bioavailable copper using the formula above.

Series [2] is described as follows: Repeated solubility: copper bioavailability over repeated wettings (colorimetric). Conditions: for Bioavailable copper Step 1 / Bioavailable copper Step 2 / Bioavailable copper Step 3 / Bioavailable copper Step 4 / Bioavailable copper Step 5: repeated solubility; for Bioavailable copper Step 1: 1 g complex in 50 ml deionised water, centrifuged, filtered, colorimetric 635 nm; for Bioavailable copper Step 2 / Bioavailable copper Step 3 / Bioavailable copper Step 4 / Bioavailable copper Step 5: undissolved material in 50 ml fresh deionised water. As for the experimental part:
The colorimetric absorbance at 635 nm using a Hach Lange DR3900 Spectrophotometer of copper nitrate solutions of known concentrations gives a linear relationship where:
Absorbance is relative to a standard solution of 9.9 ml deionised water, 0.1 ml 68 to 70% nitric acid
The copper content is converted to bioavailable copper using the formula: […]
To determine the copper content of each of the copper amino carboxylic acid complexes, 9.9 ml of filtered copper containing solution and 0.1 mL of 68 to 70% nitric acid was added to a spectrometer vial to completely react all of the copper complex to copper nitrate.
The absorbance at 635 nm (pre-zeroed with solution of 9.9 mL deionised water and 0.1 mL nitric acid) was recorded.
1 g of each copper amino carboxylic acid complex was added to 50 ml deionised water in a 50 ml centrifuge tube and stirred. The resulting mixture was centrifuged at 4000 rpm for 30 minutes, a sample of this was withdrawn and filtered through a 0.45 μm syringe. The copper content was determined using the above colorimetric method.
The remaining liquid in the centrifuge tube was poured away leaving only some undissolved material. 50 ml of fresh deionised water was added to the centrifuge tube containing undissolved material. The stirring and centrifugation process was repeated until no undissolved material remained.
These measurements indicate the bioavailability of the copper over repeated wettings in use.

For Copper 12-aminododecanoate, in series [1], the “Bioavailable Cu by ICP-MS” value was 9200 ppm.

Consider `O=C([O-])CNCC(=O)[O-].[Cu+2]` [Copper iminodiacetate], for which, in series [1], the “Bioavailable Cu by ICP-MS” value is on record as 33000 ppm. In addition, in series [2], the “Bioavailable copper Step 1” value is given as 27750 ppm, the “Bioavailable copper Step 2” value is 27750 ppm, the “Bioavailable copper Step 3” value was found to be 27750 ppm and the “Bioavailable copper Step 4” value amounted to 27750 ppm. Further, in series [2], the “Bioavailable copper Step 5” value is given as 27125 ppm. Besides, in series [2] (summary of Table 2), the “Bioavailability over repeated wettings/steps (in words)” value was “good bioavailability for 3 or more wettings/steps”.

For Copper sarcosinate, the “Bioavailable Cu by ICP-MS” value in series [1] is recorded as 278000 ppm.

Consider Copper L-asparaginate, for which, in series [1], the “Bioavailable Cu by ICP-MS” value was 7125 ppm.

Turning to Copper phenylalaninate, the “Bioavailable Cu by ICP-MS” value in series [1] amounted to 5250 ppm.

As to Copper isoleucinate, the “Bioavailable Cu by ICP-MS” value in series [1] amounted to 13050 ppm.

For the compound Copper 2-aminooctanoate, the “Bioavailable Cu by ICP-MS” value in series [1] was 150 ppm.

As to Copper lysinate, the “Bioavailable Cu by ICP-MS” value in series [1] is reported as 106950 ppm. Moreover, in series [2], the “Bioavailable copper Step 1” value worked out at 79000 ppm, the “Bioavailable copper Step 2” value stood at 24000 ppm, the “Bioavailable copper Step 3” value is listed as 8375 ppm and the “Bioavailable copper Step 4” value is given as 4000 ppm. Besides, the “Bioavailable copper Step 5” value in series [2] is 0 ppm.
